Source: patent US12628827B2, “Isoxazoline compounds and their use as pest control agents” (PI INDUSTRIES LIMITED, priority 2020, dated 2026)

Experiments:
Format in all cases: in vivo
[1] = test system: Plutella xylostella; assay: Plutella xylostella leaf dip method; details: foliar, cabbage leaves, second instar larvae, 72 h after release, dead + moribund vs untreated control, read-out: per cent mortality
Description: The leaf dip method was used for testing, wherein the required quantity of the compound was weighed and dissolved in a tube containing solvent solution. The tube was put on a vortex at 2000 rpm for 90 min for proper mixing, then, diluted with a 0.01% Triton-X solution to the desired test concentration. Cabbage leaves were dipped in the compound solution for 10 seconds, shade dried for 20 min and then transferred into the cells of bioassay trays. A single second instar larva was released into each cell and the tray was covered with a lid. The bio-assay trays were then kept under laboratory conditions at a temperature of 25° C. and a relative humidity of 70%. Observations on dead, moribund and alive larvae were recorded 72 h after the release. Percent mortality was calculated by combining dead and moribund larvae and comparing the result to the one of the untreated control. The compounds, […]

[2] = test system: Amrasca biguttulla biguttulla; assay: Amrasca biguttulla biguttulla leaf dip method; details: Solanum melongena, foliar, brinjal leaves, second instar nymphs, 72 h after release, dead + moribund vs untreated control, read-out: percent mortality
Description: (§1) The leaf dip method was used for testing, wherein the required quantity of the compound was weighed and dissolved in a tube containing solvent solution. The tube was put on a vortex at 2000 rpm for 90 min for proper mixing, then, diluted with 0.01% Triton-X solution to the desired test concentration. Brinjal leaves were dipped in the compound solution for 10 seconds, shade dried for 20 min and then placed, with the abaxial side of the leaf up, in single cells of a bio-assay tray containing 4 mL of a solidified 1% agar-agar solution. Known numbers of second instar nymphs were released into the cell with the treated leaf and the cell was covered with a perforated lid for better aeration. The trays were kept in a plant growth chamber at a temperature of 25° C. and a relative humidity of 70%. Observations on dead, moribund and alive nymphs were recorded 72 h after the release. Percent mortality was calculated by combining dead and moribund nymphs and comparing the result with the one of the untreated control. The compounds 1, 2 and 40 recorded ≥70 percent mortality @ 300 PPM.

[3] = test system: Scirtothrips dorsalis; assay: Scirtothrips dorsalis leaf dip method; details: foliar, capsicum leaves, second instar nymphs, 72 h after release, dead + moribund vs untreated control, read-out: percent mortality
Description: as §1, with “Capsicum” for “Brinjal”

[4] = test system: Tetranychus urticae; assay: Tetranychus urticae leaf dip method; details: foliar, French bean leaves, third instar nymphs, 72 h after release, dead + moribund vs untreated control, read-out: percent mortality
Description: The leaf dip method was used for testing, wherein the required quantity of the compound was weighed and dissolved in a tube containing solvent solution. The tube was put on a vortex at 2000 rpm for 90 min for proper mixing, then, diluted with 0.01% Triton-X solution to the desired test concentration. French bean leaves were dipped in the compound solution for 10 seconds, shade dried for 20 min and then placed, with the abaxial side of the leaf up, in single cells of a bio-assay tray containing 4 mL of a solidified 1% agar-agar solution. Known numbers of third instar nymphs were released into the cell with the treated leaf and the cell was covered with a perforated lid for better aeration. The trays were kept in a plant growth chamber at a temperature of 25° C. and a relative humidity of 70%. Observations on dead, moribund and alive nymphs were recorded 72 h after the release. Percent mortality was calculated by combining dead and moribund nymphs and comparing the result with the one of the untreated control. The compounds 1 2 26 38 40 46 47 48 and 49 recorded ≥70 percent mortality @ 300 PPM.

`Cc1cc(C2=NOC(c3cc(Cl)c(F)c(Cl)c3)(C(F)(F)F)C2)ccc1C(=O)N(CC(F)(F)F)c1nc(CCC(F)(F)F)n(CC(F)(F)F)n1` (stereo not shown) [Compound 111, 4-(5-(3,5-dichloro-4-fluorophenyl)-5-(trifluoromethyl)-4,5-dihydroisoxazol-3-yl)-2-methyl-N-(2,2,2-trifluoroethyl)-N-(1-(2,2,2-trifluoroethyl)-5-(3,3,3-trifluoropropyl)-1H-1,2,4-triazol-3-yl)benzamide] was tested, and the mortality at 300 ppm [1] was no less than 70%.
In the case of `Cc1cc(C2=NOC(c3cc(Cl)cc(Cl)c3)(C(F)(F)F)C2)ccc1C(=O)Nc1nc(C(F)(F)F)n(C)n1` (stereo not shown) [Compound 2, 4-(5-(3,5-dichlorophenyl)-5-(trifluoromethyl)-4,5-dihydroisoxazol-3-yl)-2-methyl-N-(1-methyl-5-(trifluoromethyl)-1H-1,2,4-triazol-3-yl)benzamide], the mortality at 300 ppm [2] is reported as no less than 70%, the mortality at 300 ppm [3] is reported as no less than 70% and the mortality at 300 ppm [4] is reported as no less than 70%.
`Cc1cc(C2=NOC(c3cc(Cl)cc(Cl)c3)(C(F)(F)F)C2)ccc1C(=O)N(CC(F)(F)F)c1nc(CCC(F)(F)F)n(CC(F)(F)F)n1` (stereo not shown) [Compound 83, 4-(5-(3,5-dichlorophenyl)-5-(trifluoromethyl)-4,5-dihydroisoxazol-3-yl)-2-methyl-N-(2,2,2-trifluoroethyl)-N-(1-(2,2,2-trifluoroethyl)-5-(3,3,3-trifluoropropyl)-1H-1,2,4-triazol-3-yl)benzamide] gave a mortality at 300 ppm [1] of no less than 70%.
`Cc1cc(C2=NOC(c3cc(Cl)cc(Cl)c3)(C(F)(F)F)C2)ccc1C(=O)N(C)c1nc(C(C)(F)F)n(C)n1` (stereo not shown) [Compound 49, 4-(5-(3,5-dichlorophenyl)-5-(trifluoromethyl)-4,5-dihydroisoxazol-3-yl)-N-(5-(1,1-difluoroethyl)-1-methyl-1H-1,2,4-triazol-3-yl)-N,2-dimethylbenzamide] showed a mortality at 300 ppm [4] of no less than 70%.
Compound `Cc1cc(C2=NOC(c3cc(Cl)cc(Cl)c3)(C(F)(F)F)C2)ccc1C(=O)Nc1nc(C(C)(F)F)n(C)n1` (stereo not shown) [Compound 48, 4-(5-(3,5-dichlorophenyl)-5-(trifluoromethyl)-4,5-dihydroisoxazol-3-yl)-N-(5-(1,1-difluoroethyl)-1-methyl-1H-1,2,4-triazol-3-yl)-2-methylbenzamide] has a mortality at 300 ppm [4] of no less than 70%.
Compound `Cc1cc(C2=NOC(c3cc(Cl)c(F)c(Cl)c3)(C(F)(F)F)C2)ccc1C(=O)N(C)c1nc(C(C)(F)F)n(C)n1` (stereo not shown) [Compound 46, 4-(5-(3,5-dichloro-4-fluorophenyl)-5-(trifluoromethyl)-4,5-dihydroisoxazol-3-yl)-N-(5-(1,1-difluoroethyl)-1-methyl-1H-1,2,4-triazol-3-yl)-N,2-dimethylbenzamide] has a mortality at 300 ppm [4] of no less than 70%.
`Cc1cc(C2=NOC(c3cc(Cl)cc(Cl)c3)(C(F)(F)F)C2)ccc1C(=O)N(CC(F)F)c1nc(CCC(F)(F)F)n(CC(F)F)n1` (stereo not shown) [Compound 87, 4-(5-(3,5-dichlorophenyl)-5-(trifluoromethyl)-4,5-dihydroisoxazol-3-yl)-N-(2,2-difluoroethyl)-N-(1-(2,2-difluoroethyl)-5-(3,3,3-trifluoropropyl)-1H-1,2,4-triazol-3-yl)-2-methylbenzamide] was tested, and the mortality at 300 ppm [1] was no less than 70%.
`CCc1nc(NC(=O)c2ccc(C3=NOC(c4cc(Cl)cc(Cl)c4)(C(F)(F)F)C3)cc2C)nn1CC` (stereo not shown) [Compound 38, 4-(5-(3,5-dichlorophenyl)-5-(trifluoromethyl)-4,5-dihydroisoxazol-3-yl)-N-(1,5-diethyl-1H-1,2,4-triazol-3-yl)-2-methylbenzamide] was tested, and the mortality at 300 ppm [4] was no less than 70%.
Work on `Cc1cc(C2=NOC(c3cc(Cl)c(F)c(Cl)c3)(C(F)(F)F)C2)ccc1C(=O)N(C)c1nc(C(F)(F)F)n(C)n1` (stereo not shown) [Compound 40, 4-(5-(3,5-dichloro-4-fluorophenyl)-5-(trifluoromethyl)-4,5-dihydroisoxazol-3-yl)-N,2-dimethyl-N-(1-methyl-5-(trifluoromethyl)-1H-1,2,4-triazol-3-yl)benzamide] yielded a mortality at 300 ppm [2] of no less than 70%, a mortality at 300 ppm [3] of no less than 70% and a mortality at 300 ppm [4] of no less than 70%.
`Cc1cc(C2=NOC(c3cc(Cl)c(F)c(Cl)c3)(C(F)(F)F)C2)ccc1C(=O)Nc1nc(C(C)(F)F)n(C)n1` (stereo not shown) [Compound 47, 4-(5-(3,5-dichloro-4-fluorophenyl)-5-(trifluoromethyl)-4,5-dihydroisoxazol-3-yl)-N-(5-(1,1-difluoroethyl)-1-methyl-1H-1,2,4-triazol-3-yl)-2-methylbenzamide] showed a mortality at 300 ppm [4] of no less than 70%.
`Cc1cc(C2=NOC(c3cc(Cl)c(F)c(Cl)c3)(C(F)(F)F)C2)ccc1C(=O)Nc1nc(C(C)C)n(C)n1` (stereo not shown) [Compound 26, 4-(5-(3,5-dichloro-4-fluorophenyl)-5-(trifluoromethyl)-4,5-dihydroisoxazol-3-yl)-N-(5-isopropyl-1-methyl-1H-1,2,4-triazol-3-yl)-2-methylbenzamide] gave a mortality at 300 ppm [4] of no less than 70%.
Work on `Cc1cc(C2=NOC(c3cc(Cl)c(F)c(Cl)c3)(C(F)(F)F)C2)ccc1C(=O)Nc1nc(C(F)(F)F)n(C)n1` (stereo not shown) [Compound 1, 4-(5-(3,5-dichloro-4-fluorophenyl)-5-(trifluoromethyl)-4,5-dihydroisoxazol-3-yl)-2-methyl-N-(1-methyl-5-(trifluoromethyl)-1H-1,2,4-triazol-3-yl)benzamide] yielded a mortality at 300 ppm [2] of no less than 70%, a mortality at 300 ppm [3] of no less than 70% and a mortality at 300 ppm [4] of no less than 70%.
With `Cc1cc(C2=NOC(c3cc(Cl)c(F)c(Cl)c3)(C(F)(F)F)C2)ccc1C(=O)N(CC(F)(F)F)c1nc(C(C)C)n(CC(F)(F)F)n1` (stereo not shown) [Compound 31, 4-(5-(3,5-dichloro-4-fluorophenyl)-5-(trifluoromethyl)-4,5-dihydroisoxazol-3-yl)-N-(5-isopropyl-1-(2,2,2-trifluoroethyl)-1H-1,2,4-triazol-3-yl)-2-methyl-N-(2,2,2-trifluoroethyl)benzamide] the mortality at 300 ppm [1] was no less than 70%.
